Experimental data from patent US20250090699A1, “FAP TARGETING CYCLIC PEPTIDES AND CONJUGATES THEREOF” (Novartis AG, priority 2023, published 2025).
Structures can show the parent of a compound that is named as a salt. Starred links: 1 amine or outer side, 2 acyl side, 3 side chain; linkers in the order of their positions; H or OH if unused. Non-standard residues stand in square brackets, D forms with d. Residues, ends and D or L forms follow the SMILES beside them. *: point of attachment. F(4amPEG2NHDOTA-Lu) = lutetium complex of (S)-2,2',2''-(10-(1-(4-(2-amino-2-carboxyethyl)phenyl)-3,12-dioxo-5,8-dioxa-2,11-diazatridecan-13-yl)-1,4,7,10-tetraazacyclododecane-1,4,7-triyl)triacetic acid (Phe with 4-aminomethyl-PEG2-DOTA-Lu), O=C([O-])CN1CCN(CC(=O)[O-])CCN(CC(=O)NCCOCCOCC(=O)NCc2ccc(C[C@H](N[*:1])C(=O)[*:2])cc2)CCN(CC(=O)[O-])CC1.[Lu+3]; K(COpipzaa) = N6-(4-(carboxymethyl)piperazine-1-carbonyl)-L-lysine, O=C(NCCCC[C@H](N[*:1])C(=O)[*:2])N1CCN(CC(=O)[*:3])CC1; COpipzaa = 4-(carboxymethyl)piperazine-1-carbonyl, O=C(O)CN1CCN(C(=O)*)CC1; F(4amPEG2NHRDOTAGA-Ga) = Phe with 4-aminomethyl-PEG2-NH-DOTAGA, Ga complex; hS(Pr) = O-propyl-L-homoserine, CCCOCC[C@H](N[*:1])C(=O)[*:2]; DOTA = O=C(O)CN1CCN(CC(=O)O)CCN(CC(=O)*)CCN(CC(=O)O)CC1; AEF = NCCOc1ccc(C[C@H](N)C(=O)O)cc1; mTyr = N[C@@H](Cc1cccc(O)c1)C(=O)O; NMeF = CN[C@@H](Cc1ccccc1)C(=O)O; Aoc(2) = CCCCCC[C@H](N)C(=O)O; Ahp(2) = CCCCC[C@H](N)C(=O)O; hSer = N[C@@H](CCO)C(=O)O

Columns and labels:
[1] = target: T1, mouse FAP (Mus musculus, UniProt P97321); test: Surface plasmon resonance (SPR) for peptide affinity, mouse FAP; format: binding
T1 construct: biotinylated His, Avi tag, mouse FAP (26-761, FAP-M82Q5); His; Avi tag (biotinylated); purchased AcroBiosystems FAP-M82Q5
T1 sequence (P97321 26-761): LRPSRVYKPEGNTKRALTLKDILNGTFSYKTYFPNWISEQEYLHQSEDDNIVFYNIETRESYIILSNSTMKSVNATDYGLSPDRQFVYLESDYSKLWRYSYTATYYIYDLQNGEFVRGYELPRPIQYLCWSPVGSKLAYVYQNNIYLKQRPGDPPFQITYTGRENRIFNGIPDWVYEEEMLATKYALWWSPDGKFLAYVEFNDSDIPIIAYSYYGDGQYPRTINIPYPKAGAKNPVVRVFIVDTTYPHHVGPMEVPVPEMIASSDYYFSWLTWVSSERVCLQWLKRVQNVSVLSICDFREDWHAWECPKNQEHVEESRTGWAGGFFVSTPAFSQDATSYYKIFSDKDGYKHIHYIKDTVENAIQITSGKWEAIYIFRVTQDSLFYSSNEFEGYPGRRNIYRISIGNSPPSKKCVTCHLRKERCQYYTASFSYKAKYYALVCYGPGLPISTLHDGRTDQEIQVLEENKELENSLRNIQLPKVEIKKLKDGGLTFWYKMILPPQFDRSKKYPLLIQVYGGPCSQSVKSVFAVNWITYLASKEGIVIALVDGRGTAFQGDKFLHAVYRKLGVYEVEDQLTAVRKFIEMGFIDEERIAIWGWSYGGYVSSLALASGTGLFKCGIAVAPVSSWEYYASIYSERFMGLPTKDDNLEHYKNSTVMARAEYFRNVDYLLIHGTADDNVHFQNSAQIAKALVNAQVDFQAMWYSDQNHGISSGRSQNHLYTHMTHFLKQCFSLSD
In short: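 KD values come from a 1:1 kinetic fit of single-cycle SPR data: 8 peptide concentrations, 25 °C, 30 μL/min, HEPES-buffered saline pH 7.6 with 2% DMSO. Targets were His/Avi-tagged human (26-760) or mouse (26-761) FAP, amine-coupled to CM5 or held on a CAPture chip.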

[2] = target: T2, human FAP (Homo sapiens, UniProt Q12884); test: Enzymatic FAP competition assay (Z-Gly-Pro-AMC fluorescence), human FAP; format: biochemical; details: read-out: h. FAP, Enz., IC50
T2 construct: the biotinylated His, Avi tag, human FAP (26-760, FAP-H82Q6); His; Avi tag (biotinylated); purchased AcroBiosystems FAP-H82Q6
T2 sequence (Q12884 26-760): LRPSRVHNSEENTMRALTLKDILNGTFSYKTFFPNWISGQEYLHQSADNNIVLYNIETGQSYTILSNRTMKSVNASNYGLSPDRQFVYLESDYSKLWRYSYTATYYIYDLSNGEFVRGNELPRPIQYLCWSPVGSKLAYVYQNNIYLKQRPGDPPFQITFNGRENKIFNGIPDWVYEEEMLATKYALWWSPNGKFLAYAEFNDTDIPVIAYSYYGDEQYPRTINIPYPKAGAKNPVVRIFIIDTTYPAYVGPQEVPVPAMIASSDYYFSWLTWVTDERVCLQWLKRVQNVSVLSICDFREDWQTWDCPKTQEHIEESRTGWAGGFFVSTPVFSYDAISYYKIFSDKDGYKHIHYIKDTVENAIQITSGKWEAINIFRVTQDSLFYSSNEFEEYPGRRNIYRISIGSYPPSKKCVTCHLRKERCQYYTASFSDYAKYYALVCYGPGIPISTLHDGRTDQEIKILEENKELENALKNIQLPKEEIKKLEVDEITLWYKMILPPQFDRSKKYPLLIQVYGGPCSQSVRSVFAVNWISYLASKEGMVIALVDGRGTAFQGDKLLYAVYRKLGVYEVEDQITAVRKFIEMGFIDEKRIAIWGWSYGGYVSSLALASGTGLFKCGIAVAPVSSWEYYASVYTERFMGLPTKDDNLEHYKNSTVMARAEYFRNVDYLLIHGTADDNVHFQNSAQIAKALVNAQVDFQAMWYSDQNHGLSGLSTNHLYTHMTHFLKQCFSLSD
In short: (§1)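 IC50 values come from curve fitting of duplicate % inhibition data on AMC fluorescence (ex 380, em 460 nm) after 4 h at 22-24° C with 50 μM Z-Gly-Pro-AMC. Beforehand, peptides up to 1 μM (14 levels) sat 24 h with 0.01 nM human (26-760) or mouse (26-761) tagged FAP in phosphate buffer pH 7.5, NaCl, Tween20, 1% DMSO.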

[3] = target: T1, mouse FAP; test: Enzymatic FAP competition assay (Z-Gly-Pro-AMC fluorescence), mouse FAP; format: biochemical; details: read-out: m. FAP, Enz., IC50
In short: as §1

Compound | Kd [1] | IC50 [2] | IC50 [3]
CCCCC[C@@H]1NC(=O)[C@H](Cc2ccc(O)cc2)NC(=O)[C@H](Cc2ccccc2)N(C)C(=O)CNC(=O)[C@H](CCO)NC(=O)[C@H]2CCCN2C(=O)[C@H](CC(=O)O)NC(=O)[C@H](Cc2ccc(O)cc2)NC(=O)CNC(=O)[C@H](Cc2c[nH]c3ccccc23)NC1=O [Example A42, hSer-Gly-NMePhe-Tyr-Ahp-Trp-Gly-Tyr-Asp-D-Pro] (cyclo([Ahp(2)]WGYD[dP][hSer]G[NMeF]Y)) | 0.2 nM | 0.089 nM | 0.36 nM
Gly-Gly-NMePhe-F(4amPEG2NHRDOTAGA-Ga)-hS(Pr)-Trp-Gly-K(COpipzaa)-AsI-D-Pro (cyclo(GG[NMeF][F(4amPEG2NHRDOTAGA-Ga)][hS(Pr)]WGK(COpipzaa)D[dP]); also: Ga complex) [Example C39] | < 0.024 nM | 0.015 nM | 0.051 nM
CCCCCC[C@@H]1NC(=O)[C@H](Cc2ccc(O)cc2)NC(=O)[C@H](Cc2ccccc2)N(C)C(=O)CNC(=O)[C@H](CCCCN)NC(=O)[C@H]2CCCN2C(=O)[C@H](CC(=O)O)NC(=O)[C@H](Cc2ccc(O)cc2)NC(=O)CNC(=O)[C@H](Cc2c[nH]c3ccccc23)NC1=O [Example A31, Lys-Gly-NMePhe-Tyr-Aoc-Trp-Gly-Tyr-Asp-D-Pro, TFA salt] (cyclo([Aoc(2)]WGYD[dP]KG[NMeF]Y)) | 0.106 nM | 0.04 nM | 0.158 nM
CCCCC[C@@H]1NC(=O)[C@H](Cc2ccc(OCCNC(=O)CN3CCN(CC(=O)O)CCN(CC(=O)O)CCN(CC(=O)O)CC3)cc2)NC(=O)[C@H](Cc2ccccc2)N(C)C(=O)CNC(=O)[C@H](CCO)NC(=O)[C@H]2CCCN2C(=O)[C@H](CC(=O)O)NC(=O)[C@H](Cc2ccc(O)cc2)NC(=O)CNC(=O)[C@H](Cc2c[nH]c3ccccc23)NC1=O [Example B26, hSer-Gly-NMePhe-F(4OEtNHDOTA)-Ahp-Trp-Gly-Tyr-Asp-D-Pro, TFA salt] (cyclo([hSer]G[NMeF][AEF](DOTA)[Ahp(2)]WGYD[dP])) | 0.105 nM | 0.027 nM | 0.117 nM
CCCCC[C@@H]1NC(=O)[C@H](Cc2ccc(O)cc2)NC(=O)[C@H](Cc2ccccc2)N(C)C(=O)CNC(=O)CNC(=O)[C@H]2CCCN2C(=O)[C@H](CC(=O)O)NC(=O)[C@H](Cc2cccc(O)c2)NC(=O)CNC(=O)[C@H](Cc2c[nH]c3ccccc23)NC1=O [Example A14, Gly-Gly-NMePhe-Tyr-Ahp-Trp-Gly-F(3OH)-Asp-D-Pro] (cyclo([Ahp(2)]WG[mTyr]D[dP]GG[NMeF]Y)) | 0.239 nM | 0.092 nM | 0.37 nM
CCCCC[C@@H]1NC(=O)[C@H](Cc2ccc(O)cc2)NC(=O)[C@H](Cc2ccccc2)N(C)C(=O)CNC(=O)CNC(=O)[C@H]2CCCN2C(=O)[C@H](C)NC(=O)[C@H](Cc2ccc(O)cc2)NC(=O)CNC(=O)[C@H](Cc2c[nH]c3ccccc23)NC1=O [Example A56, Gly-Gly-NMePhe-Tyr-Ahp-Trp-Gly-Tyr-Ala-D-Pro] (cyclo(A[dP]GG[NMeF]Y[Ahp(2)]WGY)) | 32 nM | 4.2 nM | 31 nM
Glu-Gly-NMePhe-F(4amPEG2NHDOTA-Lu)-hS(Pr)-Trp-Gly-K(COpipzaa)-Asp-D-Pro (cyclo(EG[NMeF][F(4amPEG2NHDOTA-Lu)][hS(Pr)]WG[K(COpipzaa)]D[dP]); also: Lu complex of DOTA) [Example C5] | < 0.084 nM | 0.019 nM | 0.049 nM
